Experimental data from PMC6934184, “Selective DNA-PKcs inhibition extends the therapeutic index of localized radiotherapy and chemotherapy” (The Journal of Clinical Investigation, 2019).

Target: T1, LRRK2 I2020T (Homo sapiens, UniProt Q5S007, I2020T)
T1 construct: purchased Thermo Fisher Scientific (Life Technologies) SelectScreen
Test: SelectScreen Adapta
Format: biochemical
In short: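 Compound tested in SelectScreen activity assays, Z'LYTE for CSF1R, CDK1/cyclin B and MAP2K6 and Adapta for CAMK1. ATP for CAMK1 was listed as 10, and Km app was used for CSF1R. Results are expressed in percent.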

T1 sequence (Q5S007 whole entry I2020T): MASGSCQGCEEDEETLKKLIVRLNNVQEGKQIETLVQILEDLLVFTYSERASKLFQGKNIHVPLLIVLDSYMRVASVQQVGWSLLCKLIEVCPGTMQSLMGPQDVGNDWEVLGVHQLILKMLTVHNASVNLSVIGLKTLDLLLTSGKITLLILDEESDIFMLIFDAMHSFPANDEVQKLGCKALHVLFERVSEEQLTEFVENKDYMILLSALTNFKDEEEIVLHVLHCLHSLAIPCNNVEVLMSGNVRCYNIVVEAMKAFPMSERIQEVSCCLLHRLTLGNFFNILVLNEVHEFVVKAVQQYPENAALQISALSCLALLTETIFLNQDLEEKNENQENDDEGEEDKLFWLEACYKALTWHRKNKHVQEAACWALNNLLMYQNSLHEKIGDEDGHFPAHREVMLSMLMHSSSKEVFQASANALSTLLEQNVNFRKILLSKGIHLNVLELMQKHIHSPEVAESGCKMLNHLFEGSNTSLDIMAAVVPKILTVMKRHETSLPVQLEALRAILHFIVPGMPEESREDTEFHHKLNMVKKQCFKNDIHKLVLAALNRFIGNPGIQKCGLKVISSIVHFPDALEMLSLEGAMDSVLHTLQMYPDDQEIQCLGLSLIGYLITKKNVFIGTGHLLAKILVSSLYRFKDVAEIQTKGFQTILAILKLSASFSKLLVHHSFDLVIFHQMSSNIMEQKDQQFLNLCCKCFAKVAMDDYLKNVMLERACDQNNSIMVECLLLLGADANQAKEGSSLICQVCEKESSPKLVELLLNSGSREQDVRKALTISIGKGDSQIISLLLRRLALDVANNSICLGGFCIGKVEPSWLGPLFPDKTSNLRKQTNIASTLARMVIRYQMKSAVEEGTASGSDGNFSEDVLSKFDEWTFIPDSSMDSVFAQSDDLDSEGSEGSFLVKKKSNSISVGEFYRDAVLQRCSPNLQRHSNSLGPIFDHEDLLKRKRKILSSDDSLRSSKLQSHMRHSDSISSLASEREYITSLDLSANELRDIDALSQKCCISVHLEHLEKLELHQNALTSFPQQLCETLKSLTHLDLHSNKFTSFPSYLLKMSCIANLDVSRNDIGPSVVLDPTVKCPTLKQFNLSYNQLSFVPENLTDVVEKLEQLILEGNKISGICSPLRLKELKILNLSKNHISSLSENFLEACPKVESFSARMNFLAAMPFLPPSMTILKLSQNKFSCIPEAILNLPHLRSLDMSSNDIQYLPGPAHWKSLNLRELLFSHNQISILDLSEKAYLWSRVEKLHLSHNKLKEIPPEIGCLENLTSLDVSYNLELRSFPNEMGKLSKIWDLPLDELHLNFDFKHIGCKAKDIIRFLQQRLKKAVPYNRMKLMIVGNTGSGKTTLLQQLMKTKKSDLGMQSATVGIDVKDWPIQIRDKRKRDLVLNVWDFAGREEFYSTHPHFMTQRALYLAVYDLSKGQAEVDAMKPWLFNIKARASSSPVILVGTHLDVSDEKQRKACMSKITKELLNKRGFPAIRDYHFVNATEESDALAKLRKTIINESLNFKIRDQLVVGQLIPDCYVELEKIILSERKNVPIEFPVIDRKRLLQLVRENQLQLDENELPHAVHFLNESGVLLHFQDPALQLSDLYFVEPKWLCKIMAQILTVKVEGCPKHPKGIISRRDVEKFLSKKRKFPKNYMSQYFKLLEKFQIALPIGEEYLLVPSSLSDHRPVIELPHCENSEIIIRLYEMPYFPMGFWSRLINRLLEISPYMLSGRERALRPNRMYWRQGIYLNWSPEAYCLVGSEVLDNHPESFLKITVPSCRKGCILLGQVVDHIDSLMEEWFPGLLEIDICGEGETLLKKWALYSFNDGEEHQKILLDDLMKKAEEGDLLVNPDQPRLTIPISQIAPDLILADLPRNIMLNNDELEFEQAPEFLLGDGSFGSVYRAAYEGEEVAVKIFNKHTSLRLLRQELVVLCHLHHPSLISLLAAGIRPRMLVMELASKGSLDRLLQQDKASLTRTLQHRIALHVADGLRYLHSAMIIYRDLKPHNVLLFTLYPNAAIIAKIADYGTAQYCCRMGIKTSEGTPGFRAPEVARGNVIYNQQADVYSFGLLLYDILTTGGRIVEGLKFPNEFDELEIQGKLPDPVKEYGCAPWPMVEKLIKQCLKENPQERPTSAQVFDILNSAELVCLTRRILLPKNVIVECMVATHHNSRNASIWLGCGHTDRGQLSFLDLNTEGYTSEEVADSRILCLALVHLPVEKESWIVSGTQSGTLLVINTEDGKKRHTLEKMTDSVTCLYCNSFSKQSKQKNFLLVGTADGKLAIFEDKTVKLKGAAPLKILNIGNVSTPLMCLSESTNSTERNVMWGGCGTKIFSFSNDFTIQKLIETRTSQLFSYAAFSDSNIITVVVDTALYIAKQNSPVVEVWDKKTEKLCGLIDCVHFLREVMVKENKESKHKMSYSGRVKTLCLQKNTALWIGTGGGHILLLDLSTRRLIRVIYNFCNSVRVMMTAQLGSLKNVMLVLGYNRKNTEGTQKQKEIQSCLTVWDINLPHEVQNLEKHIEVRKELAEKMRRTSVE

## CN(C(=O)CN1CCOCC1)c1ccc2sc3c(-c4cccc5c(=O)cc(N6CC7CCC(C6)O7)oc45)cccc3c2c1 [NU5455]
  inhibition at 1 µM: -4%
